# Where “and” joins values, the source holds several entries; their conditions need not be identical. Equal entries are not always repeated. Entries after “also recorded” stand apart in the source; their conditions may differ. Where two headings read alike, the source gives them in different places.
# Assays:
# [1] = cited from earlier work
# xenograft model = details: low doses; cited from earlier work
# [2] = system: pERK in blood lymphocytes; details: ~1000 ng/ml plasma conc.; cited from earlier work
# [3] = system: AML patient sample #1910-017 cells; assay: SCNP arm #1: modulated signaling in AML patient cells with and without kinase inhibitors; format: cell-based, human; details: subject #1910-017
# Method: (§1) Peripheral blood or bone marrow samples from AML patient were collected (n=9), which had been previously ficoll separated and cryopreserved. Patient characteristics are shown Table 7. One cryovial per patient was used. Samples were thawed and centrifuged over ficoll to remove dead cells and debris.
# Arm #1 assessed basal and modulated signaling in the JAK/STAT, PI3K/mTor, and MEK/ERK pathways in the presence and absence of specific kinase inhibitors. Kinase inhibitors were added […]before the addition of the signaling stimulus. Signaling was induced by individual addition of stem cell factor, Flt3 ligand, G-CSF, IL-3, or thrombopoietin (TPO) for a short period of time (5-15 min). Cells were then fixed, permeabilized, and stained with a cocktail of cell surface and phospho-specific antibodies to measure signaling in multiple cell types. Signaling data is calculated in each cell type using a fold-change metric comparing each condition to its basal state: example: (stimulated^+/−inhibitor)/(unstimulated). Also, cells with an apoptotic phenotype were excluded from the signaling analysis by gating.
# [4] = system: PMA induced pERK in lymphocytes from PBMCs; assay: PMA induced pERK in lymphocytes from PBMCs; format: cell-based
# [5] = system: AML patient myeloid cells; assay: SCNP arm #2: cytotoxic and cytostatic impact of drugs on AML patient cells; format: cell-based, human; details: 48 hours drug culture
# Description: as §1
# Arm #2 asessed the cytotoxic and cytostatic impact of various drugs as single agents and in combinations (including the specific kinase inhibitors tested in arm #1). Here the cells from each donor were cultured in the presence of TPO, IL-3, SCF, and FLT3L for 2 days to drive proliferation. After 2 days the cells were then distributed into wells containing various drugs, wherein the cells were cultured for 48 hours. The cultures were fixed, permeabilized, and stained with a cocktail of antibodies to measure complete cell death, apoptosis, S/G2 phase, M-Phase, and DNA damage. These readouts were also obstained from samples cultured separately with individual growth factors (no drugs) for four days.
# [6] = system: pAKT and pS6 on H460 cell line; details: cited from earlier work
# [7] = system: tumour xenografts that have abnormal PI3K signalling; details: loss of PTEN function or gain-of-function PI3K mutations; cited from earlier work
# proteome activity = details: 10 nM; cited from earlier work
# AML cell lines = details: read-out: IC90, proliferation of AML cell lines; cited from earlier work
# [8] = system: anti-IgM_pAKT induced PBMC; assay: anti-IgM induced pAKT in PBMC; format: cell-based
# [9] = system: Ba/F3-wt (+IL-3, proliferation) JAK2 wt; details: read-out: Reported activity Ba/F3-wt (+IL-3, proliferation) JAK2 wt; cited from earlier work
# [10] = system: pAKT (same cells, same stim); assay: pAKT inhibition in PBMCs (monos), GM-CSF; format: cell-based
# p-S6 = details: 10 nM in vitro; cited from earlier work
# mantle cell line (Jeko) = details: 10 nM in vitro; cited from earlier work
# [11] = system: tumor FDG avidity, CA-125; details: cited from earlier work
# PC3 = details: read-out: inhibition of PC3 cancer cell proliferation (IC50); cited from earlier work
# [12] = system: pS6 in paired tumor biopsies; details: patients treated at 80 mg and higher; cited from earlier work
# A2780 = details: cited from earlier work
# MDA-MB-361 = details: read-out: inhibition of MDA-MB-361 cancer cell proliferation (IC50); cited from earlier work
# [13] = system: pAKT levels assayed in PRP; details: patients treated at 80 mg and higher; cited from earlier work
# GM-CSF_pSTAT5 [14] = assay: cells; details: read-out: GM-CSF_pSTAT5 inhibition IC50
# GM-CSF_pSTAT5 [15] = details: 1000 nM
# [16] = Plasma pharmacokinetics in patients or volunteers (values collected in Table 1); details: human, in vivo
# [17] = human, in vivo; cited from earlier work
# [18] = system: normal PBMC (lymphoid and myeloid cells); assay: DNA damage response kinetics in normal PBMC; format: cell-based, human
molecule,measurement,setting,value
CC(C)(C)c1cc(NC(=O)Nc2ccc(-c3cn4c(n3)sc3cc(OCCN5CCOCC5)ccc34)cc2)no1 [AC220],half-life,"[1]; human, in vivo","AC220 half-life can be 2.5 days, exhibiting minimal peak and"
same,effect in xenograft model,xenograft model,tumor regression in a xenograft model at low doses. Ref:
"O=C(c1cc(Cc2n[nH]c(=O)c3ccccc23)ccc1F)N1CCN(C(=O)C2CC2)CC1 [AZD2281, Olaparib]",Cmax (maximum plasma concentration),[1]; at MTD,~6000 ng/mL
same,Cmax,"[1]; read-out: Cmax (maximum plasma concentration), at MTD",13.8 µM
Cn1cnc2c(F)c(Nc3ccc(Br)cc3Cl)c(C(=O)NOCCO)cc21 [AZD6244],pERK inhibition (PD effect),[2],11u-post dose. PD effects of ~80% pERK inhibition can be seen at
same,inhibition of SCF induced p-AKT,[3],no inhibition
same,inhibition of SCF induced p-S6,[3],partial inhibition
same,inhibition of SCF-PERK,[3],complete inhibition
same,inhibition at 1 µM,"[4]; 1 μM in vitro, read-out: PMA induced pERK inhibited",85 to 95%
same,IC50,[4]; lymphocytes from PBMCs,~100 nM
"Nc1ccn([C@@H]2O[C@H](CO)[C@@H](O)[C@@H]2O)c(=O)n1 [AraC, Cytarabine]",drug induced apoptosis / cell death of patient myeloid cells,[5],resisted apoptosis
Nc1ncn([C@@H]2O[C@H](CO)[C@@H](O)[C@H]2O)c(=O)n1 [Azacitidine],Cmax,"[1]; human, in vivo",1.42 to 4.72 µM
Cn1c(=O)n(-c2ccc(C(C)(C)C#N)cc2)c2c3cc(-c4cnc5ccccc5c4)ccc3ncc21 [BEZ235],IC50,[6]; read-out: pAKT 1050,10 nM
same,IC50,[6]; read-out: pS6 1050,50 nM
same,activity against tumour xenografts,[7],show that BEZ235 has strong anti-proliferative activity against
same,inhibition of SCF induced p-AKT,[3],complete inhibition
same,inhibition of SCF induced p-S6,[3],partial inhibition
CC(C)C[C@H](NC(=O)[C@H](Cc1ccccc1)NC(=O)c1cnccn1)B(O)O [Bortezomib],effect on proteome activity,proteome activity,"blocks proteome activity [BLOOD, 16 DECEMBER 2010"
same,IC90,AML cell lines,10 to 50 nM
same,drug induced apoptosis / cell death of patient myeloid cells,[5],effective at inducing apoptosis; also recorded: induced considerable levels of cell death and cytostasis
same,Cmax (prescribing info),"[1]; human, in vivo",112 ng/m1
same,Cmax,"[1]; read-out: Cmax (prescribing info), human, in vivo",0.291 µM
CC[C@H](Nc1ncnc2[nH]cnc12)c1nc2cccc(F)c2c(=O)n1-c1ccccc1 [CAL-101],block of anti-IgM induced pAKT,[8]; 40 nM,"blocked ~90%. Ref: Herman, Sarah EM et al. Blood. Jun. 3,"
same,IC50,"[8]; anti-IgM induced pAKT, PBMC, read-out: Nodality IC50",~10 nM
same,mean volume of distribution,"[1]; human, in vivo",57.7 L
same,steady-state trough plasma concentrations above the EC50 for the in vitro whole-blood assay,"[1]; human, in vivo",concentrations that are >10-fold above the EC50 for the in vitro
same,t1/2,"[1]; human, in vivo",~8 h
C[C@@H]1CCN(C(=O)CC#N)C[C@@H]1N(C)c1ncnc2[nH]ccc12 [CP690550],T½,"[1]; human, in vivo, 30 mg",2.6 h
same,effect on high basal level of p-STAT5 signaling,[3],inhibited
same,inhibition of IL-3 signaling,[3],complete inhibition
same,inhibition of TPO signaling,[3],partial inhibition
N#CCNC(=O)c1ccc(-c2ccnc(Nc3ccc(N4CCOCC4)cc3)n2)cc1 [CYT387],IC50,[9],1420 nM
same,IC50,[10],129 nM
same,IC90,[10],~1000 nM
Nc1ncn([C@H]2C[C@H](O)[C@@H](CO)O2)c(=O)n1 [Decitabine],Cmax,"[1]; 15 mg/m2 IV over 3 hrs, every 8 hrs, for 3 days",0.3 to 1.6 µM
CO[C@H]1C[C@@H]2CC[C@@H](C)[C@@](O)(O2)C(=O)C(=O)N2CCCC[C@H]2C(=O)O[C@H]([C@H](C)C[C@@H]2CC[C@@H](OCCO)[C@H](OC)C2)CC(=O)[C@H](C)/C=C(\C)[C@@H](O)[C@@H](OC)C(=O)[C@H](C)C[C@H](C)/C=C/C=C/C=C/1C [Everolimus],inhibition of p-S6,p-S6,inhibit p-S6 completely
same,Cmax,[1]; 10 mg/d,61 ng/m1 and 63 nM
same,trough,[1]; 10 mg/d,17 ng/m1 and 17.7 nM
same,trough,[1]; 50 mg/wk,lng/ml (~1 nM). [J Clin Oncol 26: 1603-1610. 2008]. A 10 nM dose
same,effect on proliferation of mantle cell line (Jeko),mantle cell line (Jeko),inhibit proliferation
CS(=O)(=O)N1CCN(Cc2cc3nc(-c4cccc5[nH]ncc45)nc(N4CCOCC4)c3s2)CC1 [GDC-0941],reductions in mean SUVmax (tumor FDG avidity on PET scan),[11]; 3 patients treated at ≧100 mg,GDC-0941 with reductions (≧30% in mean SUVmax) in tumor
same,decrease in CA-125,[11]; ovarian cancer patient,FDG avidity observed on PET scan and an ~80% decrease in CA-
same,IC50,PC3,280 nM
same,decreases in pS6 staining in paired tumor biopsies,[12],Decreases in pS6 staining of >50% can occur in paired tumor
same,IC50,A2780,140 nM
same,mean Cmax and AUCinf with dose,"[1]; human, in vivo",display dose-proportional increases in mean Cmax and AUCinf.
same,IC50,MDA-MB-361,720 nM
same,decreases in pAKT levels assayed in PRP,[13],biopsies in addition to decreases of >90% in pAKT levels assayed
same,inhibition of SCF induced p-AKT,[3],partial inhibition
same,inhibition of SCF induced p-S6,[3],partial inhibition
N#CC[C@H](C1CCCC1)n1cc(-c2ncnc3[nH]ccc23)cn1 [INCB018424],IC50,GM-CSF_pSTAT5 [14],215 nM
same,Cmax,[1]; 100 mg 24 h,4.78 µM
same,inhibition of GM-CSF_pSTAT5,GM-CSF_pSTAT5 [15],Jan 2011.) 1000 nM can completely inhibit GM-CSF_pSTAT5
Cc1ccc(NC(=O)c2ccc(CN3CCN(C)CC3)cc2)cc1Nc1nccc(-c2cccnc2)n1 [Imatinib],assumed trough,[16],1000 ng/ml and 2 μM
CCNC(=O)c1noc(-c2cc(C(C)C)c(O)cc2O)c1-c1ccc(CN2CCOCC2)cc1 [NVP-AUY922],drug induced apoptosis / cell death of patient myeloid cells,[5],effective at inducing apoptosis
Cn1nnc2c(C(N)=O)ncn2c1=O [Temozolomide],Adult MTD,[17],glioblastoma multiforme patients. Adult MTD = 200 ng/m2/day
same,T½,"[1]; human, in vivo",1.67 h
same,plasma concentration (Cmax) corresponding to 200 ng/m2/day,"[1]; human, in vivo",9300 ng/mL
same,Cmax,"[1]; read-out: plasma concentration (Cmax) corresponding to 200 ng/m2/day, human, in vivo",47.9 µM
gemtuzumab ozogamicin [Mylotarg],kinetics in Myeloid versus Lymphoid cells,[18],faster kinetics in Myeloid compared to Lymphoid cells
same,"time by which induction of p-ATM, p-Chk2 is seen",[18]; Myeloid cells,≤ 2 h

# Reference: patent US20130218474A1, “Benchmarks for Normal Cell Identification” (priority 2012, published 2013)
